Data published in ChEMBL document CHEMBL4138174, “Design and synthesis of novel C14-urea-tetrandrine derivatives with potent anti-cancer activity” (Eur J Med Chem, 2018).

How the values were obtained:
Type in all cases: functional, cell-based
PC-3 = test: Cytotoxicity against human PC3 cells assessed as reduction in cell viability after 48 hrs by MTT assay
MDA-MB-231 = test: Cytotoxicity against human MDA-MB-231 cells assessed as reduction in cell viability after 48 hrs by MTT assay
K562 = test: Cytotoxicity against human K562 cells assessed as reduction in cell viability after 48 hrs by MTT assay
[1] = Cytotoxicity against human WM9 cells assessed as reduction in cell viability after 48 hrs by MTT assay
HEL = test: Cytotoxicity against human HEL cells assessed as reduction in cell viability after 48 hrs by MTT assay

Structure (SMILES)	IC50 (PC-3; Homo sapiens, PC-3, 48 h)	IC50 (MDA-MB-231; Homo sapiens, MDA-MB-231, 48 h)	IC50 (K562; Homo sapiens, K562, 48 h)	IC50 ([1]; Homo sapiens, WM9, 48 h)	IC50 (HEL; Homo sapiens, HEL, 48 h)	IC50 (PC-3; pc-3)	IC50 (MDA-MB-231; mda-mb-231)	IC50 (K562; k562)	IC50 [1]	IC50 (HEL; hel)
COc1cc(NC(=O)Nc2ccc(Cl)c(C(F)(F)F)c2)c2cc1Oc1ccc(cc1)C[C@H]1c3cc(c(OC)cc3CCN1C)Oc1c(OC)c(OC)cc3c1[C@H](C2)N(C)CC3	4.7 µM	10.1 µM	2.05 µM	3.1 µM	5.41 µM	–	–	–	–	–
COc1cc(NC(=O)Nc2ccc(C)cc2)c2cc1Oc1ccc(cc1)C[C@H]1c3cc(c(OC)cc3CCN1C)Oc1c(OC)c(OC)cc3c1[C@H](C2)N(C)CC3	3.85 µM	7.28 µM	2.89 µM	5.13 µM	8.08 µM	–	–	–	–	–
COc1ccc(NC(=O)Nc2cc(OC)c3cc2C[C@H]2c4c(cc(OC)c(OC)c4Oc4cc5c(cc4OC)CCN(C)[C@H]5Cc4ccc(cc4)O3)CCN2C)cc1	4.67 µM	10.2 µM	3.22 µM	5.01 µM	6.65 µM	–	–	–	–	–
COc1cc(NC(=S)Nc2ccc(Cl)cc2)c2cc1Oc1ccc(cc1)C[C@H]1c3cc(c(OC)cc3CCN1C)Oc1c(OC)c(OC)cc3c1[C@H](C2)N(C)CC3	6.08 µM	4.35 µM	2.43 µM	6.93 µM	7.18 µM	–	–	–	–	–
COc1cc(NC(=O)Nc2ccc(F)cc2)c2cc1Oc1ccc(cc1)C[C@H]1c3cc(c(OC)cc3CCN1C)Oc1c(OC)c(OC)cc3c1[C@H](C2)N(C)CC3 [listing 1 of 2 here]	–	–	–	–	–	0.77 µM	3.06 µM	0.93 µM	3.49 µM	2.58 µM
COc1cc(NC(=O)NCc2ccccc2)c2cc1Oc1ccc(cc1)C[C@H]1c3cc(c(OC)cc3CCN1C)Oc1c(OC)c(OC)cc3c1[C@H](C2)N(C)CC3	5.73 µM	6.99 µM	4.59 µM	6.14 µM	8.02 µM	–	–	–	–	–
COc1ccc2cc1Oc1ccc(cc1)C[C@H]1c3cc(c(OC)cc3CCN1C)Oc1c(OC)c(OC)cc3c1[C@H](C2)N(C)CC3 [FANCHININ]	7.87 µM	22 µM	13.8 µM	11 µM	16.8 µM	–	–	–	–	–
CNC(=S)Nc1cc(OC)c2cc1C[C@H]1c3c(cc(OC)c(OC)c3Oc3cc4c(cc3OC)CCN(C)[C@H]4Cc3ccc(cc3)O2)CCN1C	6.43 µM	13.6 µM	7.35 µM	7.37 µM	9.19 µM	–	–	–	–	–
COc1cc(NC(=O)NC2CCCC2)c2cc1Oc1ccc(cc1)C[C@H]1c3cc(c(OC)cc3CCN1C)Oc1c(OC)c(OC)cc3c1[C@H](C2)N(C)CC3	1.76 µM	13.2 µM	6.42 µM	6.45 µM	11.6 µM	–	–	–	–	–
COc1cc(NC(=S)Nc2ccc(F)cc2)c2cc1Oc1ccc(cc1)C[C@H]1c3cc(c(OC)cc3CCN1C)Oc1c(OC)c(OC)cc3c1[C@H](C2)N(C)CC3	–	–	–	–	–	0.33 µM	1.56 µM	0.88 µM	1.63 µM	1.38 µM
COc1cc(NC(=O)Nc2ccc(OC(F)(F)F)cc2)c2cc1Oc1ccc(cc1)C[C@H]1c3cc(c(OC)cc3CCN1C)Oc1c(OC)c(OC)cc3c1[C@H](C2)N(C)CC3	0.74 µM	4.95 µM	1.25 µM	3.91 µM	4.02 µM	–	–	–	–	–
COc1cc(NC(=O)Nc2ccc(F)cc2)c2cc1Oc1ccc(cc1)C[C@H]1c3cc(c(OC)cc3CCN1C)Oc1c(OC)c(OC)cc3c1[C@H](C2)N(C)CC3 [listing 2 of 2 here]	–	5.02 µM	1.81 µM	4.19 µM	4.46 µM	2.07 µM	–	–	–	–
CCCCNC(=S)Nc1cc(OC)c2cc1C[C@H]1c3c(cc(OC)c(OC)c3Oc3cc4c(cc3OC)CCN(C)[C@H]4Cc3ccc(cc3)O2)CCN1C [listing 1 of 2 here]	–	–	–	–	–	1.05 µM	3.24 µM	2.02 µM	2.84 µM	1.96 µM
CCNC(=O)Nc1cc(OC)c2cc1C[C@H]1c3c(cc(OC)c(OC)c3Oc3cc4c(cc3OC)CCN(C)[C@H]4Cc3ccc(cc3)O2)CCN1C	0.98 µM	5.83 µM	3.2 µM	2.31 µM	4.02 µM	–	–	–	–	–
COc1cc(NC(=O)Nc2ccc(C(F)(F)F)cc2)c2cc1Oc1ccc(cc1)C[C@H]1c3cc(c(OC)cc3CCN1C)Oc1c(OC)c(OC)cc3c1[C@H](C2)N(C)CC3	5.2 µM	5.35 µM	1.74 µM	4.15 µM	4.74 µM	–	–	–	–	–
COc1cc(NC(=O)NCCCl)c2cc1Oc1ccc(cc1)C[C@H]1c3cc(c(OC)cc3CCN1C)Oc1c(OC)c(OC)cc3c1[C@H](C2)N(C)CC3	4.91 µM	13.3 µM	6.24 µM	4.18 µM	9.34 µM	–	–	–	–	–
COc1ccc(NC(=S)Nc2cc(OC)c3cc2C[C@H]2c4c(cc(OC)c(OC)c4Oc4cc5c(cc4OC)CCN(C)[C@H]5Cc4ccc(cc4)O3)CCN2C)cc1	5.27 µM	7.4 µM	2.69 µM	5.4 µM	7.38 µM	–	–	–	–	–
COc1cc(NC(=O)NC2CCCCC2)c2cc1Oc1ccc(cc1)C[C@H]1c3cc(c(OC)cc3CCN1C)Oc1c(OC)c(OC)cc3c1[C@H](C2)N(C)CC3	3.78 µM	16.6 µM	5.56 µM	10.4 µM	14.8 µM	–	–	–	–	–
CCCCNC(=S)Nc1cc(OC)c2cc1C[C@H]1c3c(cc(OC)c(OC)c3Oc3cc4c(cc3OC)CCN(C)[C@H]4Cc3ccc(cc3)O2)CCN1C [listing 2 of 2 here]	–	5.66 µM	2.39 µM	4.27 µM	3.68 µM	3.03 µM	–	–	–	–
COc1cc(NC(=O)N2CCOCC2)c2cc1Oc1ccc(cc1)C[C@H]1c3cc(c(OC)cc3CCN1C)Oc1c(OC)c(OC)cc3c1[C@H](C2)N(C)CC3	3.78 µM	7.29 µM	4.33 µM	5.54 µM	4.67 µM	–	–	–	–	–
C=C(C)C(=O)OCCNC(=O)Nc1cc(OC)c2cc1C[C@H]1c3c(cc(OC)c(OC)c3Oc3cc4c(cc3OC)CCN(C)[C@H]4Cc3ccc(cc3)O2)CCN1C	7.82 µM	15.8 µM	8.01 µM	1.83 µM	12.3 µM	–	–	–	–	–
COc1cc(NC(=O)NCCc2ccccc2)c2cc1Oc1ccc(cc1)C[C@H]1c3cc(c(OC)cc3CCN1C)Oc1c(OC)c(OC)cc3c1[C@H](C2)N(C)CC3	5.9 µM	9.76 µM	4.94 µM	7.68 µM	8.93 µM	–	–	–	–	–
CNC(=O)Nc1cc(OC)c2cc1C[C@H]1c3c(cc(OC)c(OC)c3Oc3cc4c(cc3OC)CCN(C)[C@H]4Cc3ccc(cc3)O2)CCN1C	1.71 µM	14.5 µM	9.21 µM	3.09 µM	9.42 µM	–	–	–	–	–
COc1cc(NC(=O)Nc2cccc(Cl)c2)c2cc1Oc1ccc(cc1)C[C@H]1c3cc(c(OC)cc3CCN1C)Oc1c(OC)c(OC)cc3c1[C@H](C2)N(C)CC3	4.54 µM	9.06 µM	2.02 µM	3.16 µM	6.47 µM	–	–	–	–	–
COc1ccc2cc1Oc1ccc(cc1)C[C@H]1c3cc(c(OC)cc3CCN1C)Oc1c(OC)c(OC)cc3c1[C@H](C2)N(C)CC3	–	–	–	–	–	4.45 µM	13.6 µM	8.87 µM	7.39 µM	10.1 µM
